Data from US20250243171A1, “QUINAZOLINE COMPOUNDS FOR TREATMENT OF DISEASE” (Arthrosi Therapeutics, Inc., priority 2021, published 2025).

Columns and labels:
Experiment in all cases: EC50 assay: Ba/F3 stable cell proliferation (CCK-8, 72 h)
Assay type in all cases: cell-based
Ba/F3 stable cells [1] = target: T1, Ba/F3 stable cells (Homo sapiens, UniProt P00533, DUP771-773, cells depend on it); conditions: Ba/F3-EGFR H773-V774insNPH cells
T1 construct: EC50 Ba/F3-EGFR H773-V774insNPH; other: Ba/F3-EGFR H773-V774insNPH cells, 72 h, CCK-8
Procedure, shortened: (§1)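 Ba/F3 stable cells were seeded at 4,000 cells/90 μL/well in 96-well plates and held 2 h at 37° C. in 5% CO2, then given 10 μL of serially titrated compound (0.1% DMSO final). After 72 h at 37° C., CCK-8 reagent was added for 4 hours and absorbance read at 450 nm to derive EC50.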

Ba/F3 stable cells [2] = target: T2, Ba/F3 stable cells (Homo sapiens, UniProt P00533, DUP768-770, cells depend on it); conditions: Ba/F3-EGFR D770-N771insSVD cells
T2 construct: EC50 Ba/F3-EGFR D770-N771insSVD; other: Ba/F3-EGFR D770-N771insSVD cells, 72 h, CCK-8
Procedure, shortened: as §1

Ba/F3 stable cells [3] = target: T3, Ba/F3 stable cells (Homo sapiens, UniProt P00533, INS763FQEA, cells depend on it); conditions: Ba/F3-EGFR A763-Y764insFQEA cells
T3 construct: EC50 Ba/F3-EGFR A763-Y764insFQEA; other: Ba/F3-EGFR A763-Y764insFQEA cells, 72 h, CCK-8
Procedure, shortened: as §1

Ba/F3 stable cells [4] = target: T4, Ba/F3 stable cells (Homo sapiens, UniProt P04626, DUP772-775, cells depend on it); conditions: Ba/F3-HER2 A775-G776insYVMA cells
T4 construct: EC50 Ba/F3-HER2 A775-G776insYVMA; other: Ba/F3-HER2 A775-G776insYVMA cells, 72 h, CCK-8
Procedure, shortened: as §1

Ba/F3 stable cells [5] = target: T5, Ba/F3 stable cells (Homo sapiens, UniProt P00533, DUP767-769, cells depend on it); conditions: Ba/F3-EGFR V769-D770insASV cells
T5 construct: EC50 Ba/F3-EGFR V769-D770insASV; other: Ba/F3-EGFR V769-D770insASV cells, 72 h, CCK-8
Procedure, shortened: as §1

Ba/F3 stable cells [6] = target: T6, Ba/F3 stable cells (Homo sapiens, UniProt P00533, T790M/L858R, cells depend on it); conditions: Ba/F3-EGFR L858R-T790M cells
T6 construct: EC50 Ba/F3-EGFR L858R-T790M; other: Ba/F3-EGFR L858R-T790M cells, 72 h, CCK-8
Procedure, shortened: as §1

T3 sequence (P00533 with tags, fused parts or gaps INS763FQEA): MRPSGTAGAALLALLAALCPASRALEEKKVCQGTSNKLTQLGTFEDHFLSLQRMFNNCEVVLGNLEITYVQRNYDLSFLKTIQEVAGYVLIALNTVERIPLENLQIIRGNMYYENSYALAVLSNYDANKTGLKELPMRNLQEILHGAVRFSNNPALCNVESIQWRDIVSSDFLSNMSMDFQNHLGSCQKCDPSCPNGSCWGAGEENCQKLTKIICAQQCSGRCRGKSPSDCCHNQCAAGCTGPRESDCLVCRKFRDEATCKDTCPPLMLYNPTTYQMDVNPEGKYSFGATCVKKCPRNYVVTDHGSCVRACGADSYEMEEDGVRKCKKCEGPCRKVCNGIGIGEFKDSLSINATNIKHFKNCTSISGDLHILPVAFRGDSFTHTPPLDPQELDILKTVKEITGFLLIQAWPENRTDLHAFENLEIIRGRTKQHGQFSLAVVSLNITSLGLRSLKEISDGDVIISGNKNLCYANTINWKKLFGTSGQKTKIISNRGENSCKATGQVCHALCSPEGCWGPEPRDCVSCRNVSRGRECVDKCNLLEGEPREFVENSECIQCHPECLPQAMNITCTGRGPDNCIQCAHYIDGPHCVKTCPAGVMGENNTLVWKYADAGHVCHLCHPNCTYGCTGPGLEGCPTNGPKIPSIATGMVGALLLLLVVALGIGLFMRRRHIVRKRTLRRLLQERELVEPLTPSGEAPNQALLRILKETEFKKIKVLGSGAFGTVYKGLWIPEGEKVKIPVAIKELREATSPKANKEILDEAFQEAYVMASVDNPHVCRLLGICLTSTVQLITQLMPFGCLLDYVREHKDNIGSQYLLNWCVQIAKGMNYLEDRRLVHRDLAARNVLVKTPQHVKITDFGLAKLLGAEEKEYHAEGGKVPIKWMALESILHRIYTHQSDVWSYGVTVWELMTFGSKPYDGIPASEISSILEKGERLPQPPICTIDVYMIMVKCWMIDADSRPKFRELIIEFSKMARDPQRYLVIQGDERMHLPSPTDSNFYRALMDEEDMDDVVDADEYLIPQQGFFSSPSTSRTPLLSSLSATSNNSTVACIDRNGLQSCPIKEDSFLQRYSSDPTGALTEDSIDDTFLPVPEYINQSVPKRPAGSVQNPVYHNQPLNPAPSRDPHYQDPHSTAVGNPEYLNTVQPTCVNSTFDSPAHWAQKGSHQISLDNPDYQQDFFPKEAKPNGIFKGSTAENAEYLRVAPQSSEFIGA
T4 sequence (P04626 with tags, fused parts or gaps DUP772-775): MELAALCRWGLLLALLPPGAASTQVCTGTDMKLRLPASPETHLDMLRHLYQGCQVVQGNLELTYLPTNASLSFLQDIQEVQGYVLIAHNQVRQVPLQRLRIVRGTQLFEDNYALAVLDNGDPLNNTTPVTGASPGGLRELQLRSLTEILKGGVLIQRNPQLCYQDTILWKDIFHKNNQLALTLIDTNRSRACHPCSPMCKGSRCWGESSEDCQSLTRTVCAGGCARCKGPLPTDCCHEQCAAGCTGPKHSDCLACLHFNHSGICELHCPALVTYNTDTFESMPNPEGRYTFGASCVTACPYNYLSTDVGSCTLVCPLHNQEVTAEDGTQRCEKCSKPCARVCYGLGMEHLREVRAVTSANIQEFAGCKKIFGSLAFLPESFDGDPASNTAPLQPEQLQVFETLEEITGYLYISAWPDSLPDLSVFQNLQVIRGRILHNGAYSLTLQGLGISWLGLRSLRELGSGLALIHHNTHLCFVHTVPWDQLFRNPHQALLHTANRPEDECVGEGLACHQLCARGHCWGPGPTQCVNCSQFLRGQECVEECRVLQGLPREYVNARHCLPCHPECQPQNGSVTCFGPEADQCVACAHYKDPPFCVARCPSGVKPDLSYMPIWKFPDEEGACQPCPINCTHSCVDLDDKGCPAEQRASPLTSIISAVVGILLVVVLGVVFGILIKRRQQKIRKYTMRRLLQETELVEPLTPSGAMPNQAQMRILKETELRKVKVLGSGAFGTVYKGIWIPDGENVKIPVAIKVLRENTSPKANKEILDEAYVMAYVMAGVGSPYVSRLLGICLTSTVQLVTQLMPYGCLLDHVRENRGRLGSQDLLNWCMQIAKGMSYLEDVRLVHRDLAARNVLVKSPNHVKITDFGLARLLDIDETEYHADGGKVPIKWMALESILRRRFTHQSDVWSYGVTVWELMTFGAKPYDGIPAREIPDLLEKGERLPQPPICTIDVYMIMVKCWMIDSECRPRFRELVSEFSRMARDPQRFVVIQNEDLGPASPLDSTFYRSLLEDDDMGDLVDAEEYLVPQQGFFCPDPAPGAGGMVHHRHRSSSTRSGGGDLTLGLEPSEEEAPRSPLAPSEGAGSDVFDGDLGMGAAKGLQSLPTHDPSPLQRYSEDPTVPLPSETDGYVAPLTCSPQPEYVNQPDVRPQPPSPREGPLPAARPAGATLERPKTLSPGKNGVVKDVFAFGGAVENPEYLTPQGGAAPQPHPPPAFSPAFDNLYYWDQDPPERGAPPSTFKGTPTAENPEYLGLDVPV
T6 sequence (P00533 whole entry T790M/L858R): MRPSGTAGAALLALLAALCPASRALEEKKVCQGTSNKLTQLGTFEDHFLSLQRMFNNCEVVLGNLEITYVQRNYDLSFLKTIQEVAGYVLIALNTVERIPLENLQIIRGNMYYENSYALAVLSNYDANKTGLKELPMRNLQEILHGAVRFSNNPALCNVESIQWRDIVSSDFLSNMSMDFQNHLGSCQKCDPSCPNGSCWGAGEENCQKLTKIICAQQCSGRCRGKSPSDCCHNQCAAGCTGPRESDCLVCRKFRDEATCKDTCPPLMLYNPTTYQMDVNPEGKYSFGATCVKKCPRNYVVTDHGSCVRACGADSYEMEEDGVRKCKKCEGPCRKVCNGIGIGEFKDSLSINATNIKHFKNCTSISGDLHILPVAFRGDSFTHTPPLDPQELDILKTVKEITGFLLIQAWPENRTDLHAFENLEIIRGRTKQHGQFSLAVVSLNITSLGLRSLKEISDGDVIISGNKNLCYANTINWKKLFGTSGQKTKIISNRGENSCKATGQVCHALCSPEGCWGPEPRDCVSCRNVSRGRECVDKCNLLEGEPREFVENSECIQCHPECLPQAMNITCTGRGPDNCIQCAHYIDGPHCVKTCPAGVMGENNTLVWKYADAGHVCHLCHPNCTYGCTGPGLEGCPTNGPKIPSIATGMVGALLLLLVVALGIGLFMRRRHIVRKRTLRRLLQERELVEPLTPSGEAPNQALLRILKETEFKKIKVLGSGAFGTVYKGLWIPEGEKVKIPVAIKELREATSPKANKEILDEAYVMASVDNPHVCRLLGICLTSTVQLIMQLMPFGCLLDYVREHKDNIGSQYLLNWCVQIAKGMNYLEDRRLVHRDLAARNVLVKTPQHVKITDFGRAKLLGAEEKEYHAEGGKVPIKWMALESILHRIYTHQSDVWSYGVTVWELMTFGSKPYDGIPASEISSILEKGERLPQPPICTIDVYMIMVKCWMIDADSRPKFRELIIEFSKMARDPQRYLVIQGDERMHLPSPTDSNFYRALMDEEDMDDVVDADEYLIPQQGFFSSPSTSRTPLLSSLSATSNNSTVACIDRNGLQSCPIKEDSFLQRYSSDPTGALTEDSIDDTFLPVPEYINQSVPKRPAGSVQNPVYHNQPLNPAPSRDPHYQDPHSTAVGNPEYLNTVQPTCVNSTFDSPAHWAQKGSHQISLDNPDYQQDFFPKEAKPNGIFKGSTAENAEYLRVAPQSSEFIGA
T2 sequence (P00533 with tags, fused parts or gaps DUP768-770): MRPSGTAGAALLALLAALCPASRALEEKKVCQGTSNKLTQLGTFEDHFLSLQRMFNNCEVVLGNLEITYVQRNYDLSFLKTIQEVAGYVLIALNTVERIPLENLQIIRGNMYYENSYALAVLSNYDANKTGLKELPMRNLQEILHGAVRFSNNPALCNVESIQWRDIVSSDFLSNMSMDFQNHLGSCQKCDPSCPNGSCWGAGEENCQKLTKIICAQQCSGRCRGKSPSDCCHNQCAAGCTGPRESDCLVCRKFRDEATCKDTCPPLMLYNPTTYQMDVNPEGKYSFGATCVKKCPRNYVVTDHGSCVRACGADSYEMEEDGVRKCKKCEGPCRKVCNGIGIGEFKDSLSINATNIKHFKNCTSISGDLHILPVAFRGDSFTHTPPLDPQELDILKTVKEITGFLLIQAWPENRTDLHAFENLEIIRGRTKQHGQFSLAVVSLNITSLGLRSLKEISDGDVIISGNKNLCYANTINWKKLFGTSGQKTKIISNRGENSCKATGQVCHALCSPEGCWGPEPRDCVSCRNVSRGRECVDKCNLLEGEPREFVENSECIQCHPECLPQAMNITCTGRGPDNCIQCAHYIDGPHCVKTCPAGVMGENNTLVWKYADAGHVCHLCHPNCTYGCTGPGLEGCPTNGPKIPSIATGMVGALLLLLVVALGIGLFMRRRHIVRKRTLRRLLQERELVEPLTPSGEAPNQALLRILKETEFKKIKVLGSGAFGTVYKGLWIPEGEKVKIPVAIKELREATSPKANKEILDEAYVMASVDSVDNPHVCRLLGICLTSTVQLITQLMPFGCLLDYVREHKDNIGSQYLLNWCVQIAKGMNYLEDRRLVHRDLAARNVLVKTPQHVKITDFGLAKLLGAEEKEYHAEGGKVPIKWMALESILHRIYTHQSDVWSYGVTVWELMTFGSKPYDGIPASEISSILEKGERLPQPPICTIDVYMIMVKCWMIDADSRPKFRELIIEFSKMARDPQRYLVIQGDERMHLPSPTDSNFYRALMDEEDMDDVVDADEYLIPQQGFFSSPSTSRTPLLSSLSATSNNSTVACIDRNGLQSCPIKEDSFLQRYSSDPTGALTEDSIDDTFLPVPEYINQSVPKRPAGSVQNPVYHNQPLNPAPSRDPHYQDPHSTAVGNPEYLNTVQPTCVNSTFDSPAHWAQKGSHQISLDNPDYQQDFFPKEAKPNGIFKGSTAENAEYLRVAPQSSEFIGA

| EC50 (Ba/F3 stable cells [1]) [nM] | EC50 (Ba/F3 stable cells [2]) [nM] | EC50 (Ba/F3 stable cells [3]) [nM] | EC50 (Ba/F3 stable cells [4]) [nM] | EC50 (Ba/F3 stable cells [5]) [nM] | EC50 (Ba/F3 stable cells [6]) [nM] | SMILES |
| --- | --- | --- | --- | --- | --- | --- |
| > 1000 | > 1000 | 200 to 1000 | > 1000 | > 1000 | > 1000 | C=CC(=O)N1CCC(Oc2cc3c(NC(=O)c4ccc(F)cc4)ncnc3cc2OC)CC1 [Compound 98, N-(6-((1-acryloylpiperidin-4-yl)oxy)-7-methoxyquinazolin-4-yl)-4-fluorobenzamide] |
| ≤ 200 | 200 to 1000 | ≤ 200 | ≤ 200 | ≤ 200 | ≤ 200 | C=CC(=O)N[C@H]1C[C@@H](Oc2cc3c(Nc4ccc(Cl)c(Cl)c4F)ncnc3cc2O[C@H]2CCOC2)C1 [Compound 99, N-((1R,3s)-3-((4-((3,4-dichloro-2-fluorophenyl)amino)-7-(((S)-tetrahydrofuran-3-yl)oxy)quinazolin-6-yl)oxy)cyclobutyl)acrylamide] |
| 200 to 1000 | 200 to 1000 | ≤ 200 | 200 to 1000 | ≤ 200 | 200 to 1000 | C=CC(=O)N[C@H]1C[C@@H](Oc2cc3c(Nc4ccc(Cl)c(Cl)c4F)ncnc3cc2OCCO)C1 [Compound 100, N-((1s,3s)-3-((4-((3,4-dichloro-2-fluorophenyl)amino)-7-(2-hydroxyethoxy)quinazolin-6-yl)oxy)cyclobutyl)acrylamide] |
| > 1000 | > 1000 | ≤ 200 | > 1000 | 200 to 1000 | > 1000 | C=CC(=O)N[C@H]1C[C@@H](Oc2cc3c(Nc4ccc(Cl)c(Cl)c4F)ncnc3cc2OCCN(C)C)C1 [Compound 101, N-((1s,3s)-3-((4-((3,4-dichloro-2-fluorophenyl)amino)-7-(2-(dimethylamino)ethoxy)quinazolin-6-yl)oxy)cyclobutyl)acrylamide] |
| ≤ 200 | ≤ 200 | ≤ 200 | ≤ 200 | ≤ 200 | ≤ 200 | [2H]C([2H])([2H])Oc1cc2ncnc(Nc3ccc(Cl)c(Cl)c3F)c2cc1O[C@H]1C[C@@H](NC(=O)C=C)C1 [Compound 102, N-((1s,3s)-3-((4-((3,4-dichloro-2-fluorophenyl)amino)-7-(methoxy-d3)quinazolin-6-yl)oxy)cyclobutyl)acrylamide] |
| ≤ 200 | ≤ 200 | ≤ 200 | ≤ 200 | ≤ 200 | ≤ 200 | C=CC(=O)N[C@H]1C[C@@H](Oc2cc3c(Nc4ccc(Cl)c(Cl)c4F)ncnc3cc2NC)C1 [Compound 103, N-((1s,3s)-3-((4-((3,4-dichloro-2-fluorophenyl)amino)-7-(methylamino)quinazolin-6-yl)oxy)cyclobutyl)acrylamide] |
| ≤ 200 | 200 to 1000 | ≤ 200 | 200 to 1000 | ≤ 200 | 200 to 1000 | C=CC(=O)N[C@H]1C[C@@H](Oc2cc3c(Nc4ccc(Cl)c(Cl)c4F)ncnc3cc2OC2COC2)C1 [Compound 104, N-((1s,3s)-3-((4-((3,4-dichloro-2-fluorophenyl)amino)-7-(oxetan-3-yloxy)quinazolin-6-yl)oxy)cyclobutyl)acrylamide] |
| ≤ 200 | ≤ 200 | ≤ 200 | ≤ 200 | ≤ 200 | ≤ 200 | C=CC(=O)N[C@H]1C[C@@H](Oc2cc3c(Nc4ccc(Cl)c(Cl)c4F)ncnc3cc2OCC)C1 [Compound 105, N-((1s,3s)-3-((4-((3,4-dichloro-2-fluorophenyl)amino)-7-ethoxyquinazolin-6-yl)oxy)cyclobutyl)acrylamide] |
| ≤ 200 | ≤ 200 | ≤ 200 | ≤ 200 | ≤ 200 | 200 to 1000 | C=CC(=O)N1CCC(Oc2cc3c(NCc4cccc(Cl)c4)ncnc3cc2OC)CC1 [Compound 106, 1-(4-((4-((3-chlorobenzyl)amino)-7-methoxyquinazolin-6-yl)oxy)piperidin-1-yl)prop-2-en-1-one] |
| 200 to 1000 | 200 to 1000 | ≤ 200 | > 1000 | 200 to 1000 | 200 to 1000 | C=CC(=O)N1CCC(Oc2cc3c(OCc4cccc(Cl)c4)ncnc3cc2OC)CC1 [Compound 107, 1-(4-((4-((3-chlorobenzyl)oxy)-7-methoxyquinazolin-6-yl)oxy)piperidin-1-yl)prop-2-en-1-one] |
| 200 to 1000 | > 1000 | ≤ 200 | > 1000 | > 1000 | > 1000 | C=CC(=O)N1CCC(Oc2cc3c(NCc4ccc(Cl)cc4)ncnc3cc2OC)CC1 [Compound 108, 1-(4-((4-((4-chlorobenzyl)amino)-7-methoxyquinazolin-6-yl)oxy)piperidin-1-yl)prop-2-en-1-one] |
| > 1000 | > 1000 | 200 to 1000 | > 1000 | > 1000 | > 1000 | C=CC(=O)N1CCC(Oc2cc3c(NCc4ccc(Cl)cc4Cl)ncnc3cc2OC)CC1 [Compound 109, 1-(4-((4-((2,4-dichlorobenzyl)amino)-7-methoxyquinazolin-6-yl)oxy)piperidin-1-yl)prop-2-en-1-one] |
| ≤ 200 | 200 to 1000 | ≤ 200 | ≤ 200 | ≤ 200 | 200 to 1000 | C=CC(=O)N1CCC(Oc2cc3c(NCc4ccccc4Cl)ncnc3cc2OC)CC1 [Compound 110, 1-(4-((4-((2-chlorobenzyl)amino)-7-methoxyquinazolin-6-yl)oxy)piperidin-1-yl)prop-2-en-1-one] |
| ≤ 200 | 200 to 1000 | ≤ 200 | ≤ 200 | ≤ 200 | 200 to 1000 | C=CC(=O)N1CCC(Oc2cc3c(NCc4cccc(F)c4)ncnc3cc2OC)CC1 [Compound 111, 1-(4-((4-((3-fluorobenzyl)amino)-7-methoxyquinazolin-6-yl)oxy)piperidin-1-yl)prop-2-en-1-one] |
| 200 to 1000 | > 1000 | ≤ 200 | ≤ 200 | 200 to 1000 | 200 to 1000 | C=CC(=O)N1CCC(Oc2cc3c(NCc4ccccc4F)ncnc3cc2OC)CC1 [Compound 112, 1-(4-((4-((2-fluorobenzyl)amino)-7-methoxyquinazolin-6-yl)oxy)piperidin-1-yl)prop-2-en-1-one] |
| 200 to 1000 | > 1000 | ≤ 200 | ≤ 200 | 200 to 1000 | > 1000 | C=CC(=O)N1CCC(Oc2cc3c(NCc4ccc(Cl)c(F)c4)ncnc3cc2OC)CC1 [Compound 113, 1-(4-((4-((4-chloro-3-fluorobenzyl)amino)-7-methoxyquinazolin-6-yl)oxy)piperidin-1-yl)prop-2-en-1-one] |
| 200 to 1000 | 200 to 1000 | ≤ 200 | ≤ 200 | 200 to 1000 | ≤ 200 | C=CC(=O)N1CCC(Oc2cc3c(NCc4ccc(F)c(Cl)c4)ncnc3cc2OC)CC1 [Compound 114, 1-(4-((4-((3-chloro-4-fluorobenzyl)amino)-7-methoxyquinazolin-6-yl)oxy)piperidin-1-yl)prop-2-en-1-one] |
| > 1000 | > 1000 | ≤ 200 | ≤ 200 | > 1000 | 200 to 1000 | C=CC(=O)N1CCC(Oc2cc3c(NCc4ccc(Cl)c(Cl)c4)ncnc3cc2OC)CC1 [Compound 115, 1-(4-((4-((3,4-dichlorobenzyl)amino)-7-methoxyquinazolin-6-yl)oxy)piperidin-1-yl)prop-2-en-1-one] |

| SMILES | EC50 (Ba/F3 stable cells [1]) [nM] | EC50 (Ba/F3 stable cells [2]) [nM] | EC50 (Ba/F3 stable cells [3]) [nM] | EC50 (Ba/F3 stable cells [4]) [nM] | EC50 (Ba/F3 stable cells [5]) [nM] | EC50 (Ba/F3 stable cells [6]) [nM] |
| --- | --- | --- | --- | --- | --- | --- |
| C=CC(=O)NC1CC(Oc2cc3c(C(=O)NCc4ccc(F)cc4)ncnc3cc2OC)C1 (stereo not drawn) [Compound 96, 6-(3-acrylamidocyclobutoxy)-N-(4-fluorobenzyl)-7-methoxyquinazoline-4-carboxamide] | > 1000 | > 1000 | > 1000 | > 1000 | > 1000 | > 1000 |
| C=CC(=O)N[C@H]1C[C@@H](Oc2cc3c(C(=O)N[C@H](C)c4ccc(F)cc4)ncnc3cc2OC)C1 [Compound 97, 6-((1s,3S)-3-acrylamidocyclobutoxy)-N-((R)-1-(4-fluorophenyl)ethyl)-7-methoxyquinazoline-4-carboxamide] | > 1000 | > 1000 | > 1000 | > 1000 | > 1000 | > 1000 |
